# Measurements from patent US20230257372A1 (CHONG KUN DANG PHARMACEUTICAL CORP., priority 2020, published 2023).
# Where two headings read alike, the source gives them in different places.
# Key:
# human recombinant HDAC6 = molecular target: T1, human recombinant HDAC6 (Homo sapiens, UniProt Q9UBN7); assay: HDAC6 enzyme activity inhibition (HDAC Fluorimetric Drug Discovery Kit); assay type: biochemical
# T1 construct: purchased Calbiochem Inc. 382180
# T1 sequence (Q9UBN7 1-1215): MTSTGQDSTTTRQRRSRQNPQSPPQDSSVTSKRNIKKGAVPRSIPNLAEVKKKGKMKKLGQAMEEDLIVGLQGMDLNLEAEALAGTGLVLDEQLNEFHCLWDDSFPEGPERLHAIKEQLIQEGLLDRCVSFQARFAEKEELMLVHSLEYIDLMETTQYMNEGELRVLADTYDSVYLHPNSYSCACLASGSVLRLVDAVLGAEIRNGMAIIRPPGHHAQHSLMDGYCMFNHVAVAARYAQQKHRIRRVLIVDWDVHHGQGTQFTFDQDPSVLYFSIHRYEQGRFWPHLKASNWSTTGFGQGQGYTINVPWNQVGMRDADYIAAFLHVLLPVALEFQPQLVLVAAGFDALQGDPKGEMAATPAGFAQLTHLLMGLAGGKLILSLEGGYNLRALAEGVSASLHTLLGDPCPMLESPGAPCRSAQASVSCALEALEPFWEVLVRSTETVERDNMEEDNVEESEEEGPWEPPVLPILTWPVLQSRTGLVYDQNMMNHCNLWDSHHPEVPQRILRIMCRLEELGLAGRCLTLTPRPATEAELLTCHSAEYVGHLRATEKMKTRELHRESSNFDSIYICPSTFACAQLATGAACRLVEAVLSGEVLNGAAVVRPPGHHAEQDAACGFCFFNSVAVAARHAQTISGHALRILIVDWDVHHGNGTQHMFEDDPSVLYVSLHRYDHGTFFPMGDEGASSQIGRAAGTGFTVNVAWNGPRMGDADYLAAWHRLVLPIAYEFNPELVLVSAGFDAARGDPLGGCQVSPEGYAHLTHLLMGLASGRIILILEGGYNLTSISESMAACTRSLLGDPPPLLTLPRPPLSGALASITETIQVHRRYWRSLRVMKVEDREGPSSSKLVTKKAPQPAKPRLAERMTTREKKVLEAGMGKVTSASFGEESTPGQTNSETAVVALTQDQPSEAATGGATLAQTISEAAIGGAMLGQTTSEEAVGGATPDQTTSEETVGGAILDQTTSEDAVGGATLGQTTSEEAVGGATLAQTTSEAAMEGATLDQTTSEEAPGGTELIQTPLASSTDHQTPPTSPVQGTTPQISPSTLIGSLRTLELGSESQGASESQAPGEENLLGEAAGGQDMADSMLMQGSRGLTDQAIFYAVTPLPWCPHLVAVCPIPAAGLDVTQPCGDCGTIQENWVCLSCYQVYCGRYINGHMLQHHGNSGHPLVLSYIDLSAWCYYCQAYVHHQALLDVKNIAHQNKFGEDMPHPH
# Procedure, shortened: (§1)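 Fluorimetric deacetylase read-out: after 30 min with Developer II following a 60 min, 30° C reaction of recombinant enzyme ([…]) with 10 μM substrate, across five-fold serial compound dilutions.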
# human recombinant HDAC1 = molecular target: T2, human recombinant HDAC1 (Homo sapiens, UniProt Q13547); assay: HDAC1 enzyme activity inhibition (HDAC Fluorimetric Drug Discovery Kit); assay type: biochemical; conditions: read-out: HDAC1
# T2 construct: purchased Enzo Life Science, Inc. BML-SE456
# T2 sequence (Q13547 whole entry): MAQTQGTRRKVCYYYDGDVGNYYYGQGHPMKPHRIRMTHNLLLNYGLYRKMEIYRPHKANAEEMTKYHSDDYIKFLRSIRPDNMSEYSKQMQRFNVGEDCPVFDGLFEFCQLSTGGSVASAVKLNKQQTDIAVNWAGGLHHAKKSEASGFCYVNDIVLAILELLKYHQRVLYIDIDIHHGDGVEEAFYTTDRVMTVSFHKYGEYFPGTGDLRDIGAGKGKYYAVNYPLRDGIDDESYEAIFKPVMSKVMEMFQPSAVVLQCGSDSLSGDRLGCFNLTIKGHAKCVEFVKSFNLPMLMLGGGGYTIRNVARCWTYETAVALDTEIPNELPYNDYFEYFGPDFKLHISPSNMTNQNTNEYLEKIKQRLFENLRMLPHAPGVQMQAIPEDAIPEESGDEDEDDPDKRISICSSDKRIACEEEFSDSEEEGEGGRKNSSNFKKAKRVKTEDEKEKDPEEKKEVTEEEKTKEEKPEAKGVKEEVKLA
# Procedure, shortened: as §1
# [1] = human recombinant HDAC6, IC50 calculated with GraphPad Prism
# [2] = human recombinant HDAC1, IC50 calculated with GraphPad Prism
# [3] = human recombinant HDAC6, same protocol as HDAC1
# [4] = human recombinant HDAC1, Fluor de Lys substrate, 30° C. 60 minutes
SMILES,HDAC6 selectivity (fold) (human recombinant HDAC6; HDAC1 IC50 / HDAC6 IC50),IC50 (human recombinant HDAC6; [1]) [µM],IC50 (human recombinant HDAC1; [2]) [µM],HDAC6 selectivity (fold) (human recombinant HDAC6; HDAC6 over HDAC1),IC50 (human recombinant HDAC6; [3]) [µM],IC50 (human recombinant HDAC1; [4]) [µM]
"O=C(c1cccc(-c2cn(Cc3ccc(-c4nnc(C(F)F)o4)cn3)nn2)c1)N1CCOCC1 [Compound 3885, (3-(1-((5-(5-(difluoromethyl)-1,3,4-oxadiazol-2-yl)pyridin-2-yl)methyl)-1H-1,2,3-triazol-4-yl)phenyl)(morpholino)methanone]",920,0.0543,> 50,,,
"COC(=O)N1CCC[C@H]1c1cn(Cc2ccc(-c3nnc(C(F)F)o3)cn2)nn1 [Compound 4028, methyl (S)-2-(1-((5-(5-(difluoromethyl)-1,3,4-oxadiazol-2-yl)pyridin-2-yl)methyl)-1H-1,2,3-triazol-4-yl)pyrrolidin-1-carboxylate]",238,0.21,> 50,,,
"CN1CCN(c2cc(-c3cn(Cc4ccc(-c5nnc(C(F)F)o5)cc4F)nn3)ccc2F)CC1 [Compound 4424, 2-(difluoromethyl)-5-(3-fluoro-4-((4-(4-fluoro-3-(4-methylpiperazin-1-yl)phenyl)-1H-1,2,3-triazol-1-yl)methyl)phenyl)-1,3,4-oxadiazol]",559,0.0894,> 50,,,
"Fc1cc(-c2nnc(C(F)F)o2)ccc1Cn1cc(-c2ccc(CNC3CCC(F)(F)CC3)cc2)nn1 [Compound 4477, N-(4-(1-(4-(5-(difluoromethyl)-1,3,4-oxadiazol-2-yl)-2-fluorobenzyl)-1H-1,2,3-triazol-4-yl)benzyl)-4,4-difluorocyclohexan-1-amine]",2008,0.0249,> 50,,,
"O=C(CO)N1CCC(c2cn(Cc3ccc(-c4nnc(C(F)F)o4)cn3)nn2)CC1 [Compound 3813, 1-(4-(1-((5-(5-(difluoromethyl)-1,3,4-oxadiazol-2-yl)pyridin-2-yl)methyl)-1H-1,2,3-triazol-4-yl)piperidin-1-yl)-2-hydroxyethan-1-one]",166,0.3,> 50,,,
"Fc1cc(-c2nnc(C(F)F)o2)ccc1Cn1cc(-c2ccccc2CN2CCC2)nn1 [Compound 4583, 2-(4-((4-(2-(azetidin-1-ylmethyl)phenyl)-1H-1,2,3-triazol-1-yl)methyl)-3-fluorophenyl)-5-(difluoromethyl)-1,3,4-oxadiazole]",,,,138,0.36,> 50
"Fc1cc(-c2nnc(C(F)F)o2)ccc1Cn1cc(-c2ccc(CN3CCC3)cc2)nn1 [Compound 4466, 2-(4-((4-(4-(azetidin-1-ylmethyl)phenyl)-1H-1,2,3-triazol-1-yl)methyl)-3-fluorophenyl)-5-(difluoromethyl)-1,3,4-oxadiazole]",6944,0.0072,> 50,,,
"CCN1CCN(Cc2cccc(-c3cn(Cc4ccc(-c5nnc(C(F)F)o5)cc4)nn3)c2)CC1 [Compound 4415, 2-(difluoromethyl)-5-(4-((4-(3-((4-ethylpiperazin-1-yl)methyl)phenyl)-1H-1,2,3-triazol-1-yl)methyl)phenyl)-1,3,4-oxadiazole]",545,0.0917,> 50,,,
"CC(C)N1CC(c2cccc(-c3cn(Cc4ccc(-c5nnc(C(F)F)o5)cc4F)nn3)c2)C1 [Compound 4461, 2-(difluoromethyl)-5-(3-fluoro-4-((4-(3-(1-isopropylazetidin-3-yl)phenyl)-1H-1,2,3-triazol-1-yl)methyl)phenyl)-1,3,4-oxadiazole]",759,0.0658,> 50,,,
"CN1C[C@@H]2C[C@H]1CN2c1cccc(-c2cn(Cc3ccc(-c4nnc(C(F)F)o4)cc3F)nn2)c1 [Compound 4318, 2-(difluoromethyl)-5-(3-fluoro-4-((4-(3-((1S,4S)-5-methyl-2,5-diazabicyclo[2.2.1]heptan-2-yl)phenyl)-1H-1,2,3-triazol-1-yl)methyl)phenyl)-1,3,4-oxadiazole]",1373,0.0364,> 50,,,
"FC(F)c1nnc(-c2ccc(Cn3cc(-c4ccc5[nH]cc(CN6CCOCC6)c5c4)nn3)cc2)o1 [Compound 4186, 4-((5-(1-(4-(5-(difluoromethyl)-1,3,4-oxadiazol-2-yl)benzyl)-1H-1,2,3-triazol-4-yl)-1H-indol-3-yl)methyl)morpholine]",4464,0.0112,> 50,,,
FC(F)(F)c1nnc(-c2ccc(Cn3nnc(-c4ccccc4)n3)nc2)o1 [Compound 4235],290,0.172,> 50,,,
CC(C)N1CCc2cc(-c3cn(Cc4ccc(-c5nnc(C(F)F)o5)cc4F)nn3)sc2C1 [Compound 4501],,,,365,0.137,> 50
"CN(C)Cc1ccc(-c2cn(Cc3ncc(-c4nnc(C(F)F)o4)cc3F)nn2)c(Cl)c1 [Compound 19098, 1-(3-chloro-4-(1-((5-(5-(difluoromethyl)-1,3,4-oxadiazol-2-yl)-3-fluoropyridin-2-yl)methyl)-1H-1,2,3-triazol-4-yl)phenyl)-N,N-dimethylmethanamine]",,,,1315,0.038,> 50
"CC1CCN(Cc2c[nH]c3cc(-c4cn(Cc5ccc(-c6nnc(C(F)F)o6)cc5)nn4)ccc23)CC1 [Compound 4492, 2-(difluoromethyl)-5-(4-((4-(3-((4-methylpiperidin-1-yl)methyl)-1H-indol-6-yl)-1H-1,2,3-triazol-1-yl)methyl)phenyl)-1,3,4-oxadiazole]",3333,0.015,> 50,,,
Fc1ccc(-c2cn(Cc3ccc(-c4nnc(C(F)F)o4)cn3)nn2)cc1 [Compound 3855],1818,0.0275,> 50,,,
Fc1cc(-c2nnc(C(F)F)o2)cnc1Cn1cc(-c2ccc3c(c2)CN(C2CCC2)CC3)nn1 [Compound 19004],,,,640,0.0781,> 50
"O=C(O)c1cccc(-c2cn(Cc3ccc(-c4nnc(C(F)F)o4)cc3F)nn2)c1 [Compound 3660, 3-(1-(4-(5-(difluoromethyl)-1,3,4-oxadiazol-2-yl)-2-fluorobenzyl)-1H-1,2,3-triazol-4-yl)benzoic acid]",175,0.285,> 50,,,
"CC(C)(C)C(=O)Nc1cccc(-c2cn(Cc3ccc(-c4nnc(C(F)F)o4)cc3)nn2)c1 [Compound 4327, N-(3-(1-(4-(5-(difluoromethyl)-1,3,4-oxadiazol-2-yl)benzyl)-1H-1,2,3-triazol-4-yl)phenyl)pivalamide]",1396,0.0358,> 50,,,
"CN1CCC(Nc2ccc(F)c(-c3cn(Cc4ccc(-c5nnc(C(F)F)o5)cc4F)nn3)c2)CC1 [Compound 4435, N-(3-(1-(4-(5-(difluoromethyl)-1,3,4-oxadiazol-2-yl)-2-fluorobenzyl)-1H-1,2,3-triazol-4-yl)-4-fluorophenyl)-1-methylpiperidin-4-amine]",1677,0.0298,> 50,,,
"CN1CCC(Nc2cccc(-c3cn(Cc4ccc(-c5nnc(C(F)F)o5)cn4)nn3)c2)CC1 [Compound 3830, N-(3-(1-((5-(5-(difluoromethyl)-1,3,4-oxadiazol-2-yl)pyridin-2-yl)methyl)-1H-1,2,3-triazol-4-yl)phenyl)-1-methylpiperidin-4-amine]",219,0.0228,> 50,,,
"Fc1cc(-c2nnc(C(F)F)o2)ccc1Cn1cc(-c2ccc(CNC3CCCC3)cc2)nn1 [Compound 4609, N-(4-(1-(4-(5-(difluoromethyl)-1,3,4-oxadiazol-2-yl)-2-fluorobenzyl)-1H-1,2,3-triazol-4-yl)benzyl)cyclopentanamine]",,,,3164,0.0158,> 50
